The experiment has as its target mushroom tyrosinase. Briefly: L-DOPA oxidation (dopachrome, […] nm) inhibition assay with Lineweaver-Burk kinetics. The experiment is classed as biochemical.

SMILES strings stand for the structures.

In turn, `O=C1C(O)Oc2ccccc2N1O` (centres unmarked) [compound 1, 2,4-dihydroxy-1,4-benzoxazin-3-one] gave a half-maximal inhibitory concentration (IC50) of 27.2 ± 3 µM.

For the molecule `C[C@@H]1O[C@@H](O[C@@H]2[C@@H](O)[C@H](OCCc3ccc(O)c(O)c3)O[C@H](CO)[C@H]2OC(=O)/C=C/c2ccc(O)c(O)c2)[C@H](O)[C@H](O)[C@H]1O` [compound 8, 2-(3,4-dihydroxyphenyl)ethyl-1-O-α-L-rhamnopyranosyl-(1→3)-(4-O-Ε-caffeoyl)-β-D-glucopyranoside], 22.7 ± 2.83 µM corresponded to half-maximal inhibition (IC50).

What is called IC50 is the concentration at which inhibition is half-maximal.

(Values after paper PMC9653606, “Synergistic Effect of DIBOA and Verbascoside from Acanthus mollis Leaf on Tyrosinase Inhibition” (International Journal of Molecular Sciences, 2022).)
